Test results: PubChem BioAssay (NCI)
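In this assay, cells in 96-well plates receive the compound at five concentrations for 48 hours. Endpoints are linearly interpolated between the surrounding concentrations. GI50 = concentration required for 50% inhibition of growth. At the TGI there is no net growth.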

Columns and labels:
Experiment in all cases: growth of human tumour cells (NCI), 48 h; in the data active = GI50 below about 0.43 µM; inactive = the rest
[1] = system: 786-0 renal
[2] = system: A498 renal
[3] = system: A549 NSCLC
[4] = system: ACHN renal
[5] = system: BT-549 breast
[6] = system: CAKI-1 renal
[7] = system: CCRF-CEM leukemia
[8] = system: COLO 205 colon
[9] = system: DU-145 prostate
[10] = system: EKVX NSCLC
[11] = system: HCC-2998 colon
[12] = system: HCT-116 colon
[13] = system: HCT-15 colon
[14] = system: HL-60(TB) leukemia
[15] = system: HOP-62 NSCLC
[16] = system: HOP-92 NSCLC
[17] = system: HS 578T breast
[18] = system: HT29 colon
[19] = system: IGROV1 ovarian
[20] = system: K-562 leukemia
[21] = system: KM12 colon
[22] = system: LOX IMVI melanoma
[23] = system: M14 melanoma
[24] = system: MCF7 breast
[25] = system: MDA-MB-231 breast
[26] = system: MDA-MB-435
[27] = system: MOLT-4 leukemia
[28] = system: NCI-H226 lung
[29] = system: NCI-H23 lung
[30] = system: NCI-H460 lung
[31] = system: NCI-H522 lung
[32] = system: NCI/ADR-RES ovarian
[33] = system: OVCAR-3 ovarian
[34] = system: OVCAR-4 ovarian
[35] = system: OVCAR-5 ovarian
[36] = system: OVCAR-8 ovarian
[37] = system: PC-3 prostate
[38] = system: RPMI-8226 leukemia
[39] = system: RXF 393 renal
[40] = system: SF-268 CNS
[41] = system: SF-295 CNS
[42] = system: SK-MEL-2 melanoma
[43] = system: SK-MEL-28 melanoma
[44] = system: SK-MEL-5 melanoma
[45] = system: SN12C renal
[46] = system: SNB-19 CNS
[47] = system: SNB-75 CNS
[48] = system: SR leukemia
[49] = system: SW-620 colon
[50] = system: TK-10 renal
[51] = system: U251 CNS
[52] = system: UACC-257 melanoma
[53] = system: UACC-62 melanoma
[54] = system: UO-31 renal

Cc1cc(C)c(-c2cc(O)c(-c3c(C)cc(C)cc3C)cc2O)c(C)c1
65.1 µM: TGI [18]
inactive: GI50 [1] 6.49 µM | GI50 [2] 2.58 µM | GI50 [3] 4.6 µM | GI50 [4] 7.43 µM | GI50 [5] 6.39 µM | GI50 [6] 4.23 µM | GI50 [7] 4.1 µM | GI50 [8] 2.27 µM | GI50 [9] 3.35 µM | GI50 [10] 5.83 µM | GI50 [11] 2.9 µM | GI50 [12] 3.51 µM | GI50 [13] 3.73 µM | GI50 [14] 3.21 µM | GI50 [15] 4.55 µM | GI50 [16] 37.2 µM | GI50 [17] 3.29 µM | GI50 [18] 3.18 µM | GI50 [19] 4.18 µM | GI50 [20] 2.91 µM | GI50 [21] 2.19 µM | GI50 [22] 4.39 µM | GI50 [23] 2.77 µM | GI50 [24] 2.46 µM | GI50 [25] 3.29 µM | GI50 [26] 0.482 µM | GI50 [27] 6.93 µM | GI50 [28] 38.7 µM | GI50 [29] 4.05 µM | GI50 [30] 3.45 µM | GI50 [31] 1.74 µM | GI50 [32] 4.33 µM | GI50 [33] 2.05 µM | GI50 [34] 7.6 µM | GI50 [35] 11.3 µM | GI50 [36] 5.37 µM | GI50 [37] 4.44 µM | GI50 [38] 5.82 µM | GI50 [39] 2.77 µM | GI50 [40] 5.83 µM | GI50 [41] 2.68 µM | GI50 [42] 4.55 µM | GI50 [43] 8.14 µM | GI50 [44] 1.61 µM | GI50 [45] 5.52 µM | GI50 [46] 3.58 µM | GI50 [47] 2.87 µM | GI50 [48] 2.43 µM | GI50 [49] 3.17 µM | GI50 [50] > 100 µM | GI50 [51] 4.22 µM | GI50 [52] > 100 µM | GI50 [53] 3.18 µM | GI50 [54] 9.7 µM
31.2 µM: TGI [44]
4.46 µM: TGI [31]
15.2 µM: TGI [9]
> 100 µM: TGI [1] | TGI [2] | TGI [3] | TGI [4] | TGI [5] | TGI [6] | TGI [7] | TGI [10] | TGI [11] | TGI [12] | TGI [13] | TGI [14] | TGI [15] | TGI [16] | TGI [17] | TGI [19] | TGI [20] | TGI [21] | TGI [22] | TGI [23] | TGI [24] | TGI [26] | TGI [27] | TGI [28] | TGI [29] | TGI [30] | TGI [32] | TGI [34] | TGI [35] | TGI [36] | TGI [37] | TGI [38] | TGI [39] | TGI [40] | TGI [41] | TGI [42] | TGI [43] | TGI [45] | TGI [46] | TGI [47] | TGI [48] | TGI [49] | TGI [50] | TGI [51] | TGI [52] | TGI [53] | TGI [54]
4.85 µM: TGI [33]
11.3 µM: TGI [25]
5.68 µM: TGI [8]
